Measurements published in US8367720B2 (Panorama Research Inc., priority 2007, dated 2013).
Structures can show the parent of a compound that is named as a salt. Where two headings read alike, the source gives them in different places.

Tests used:
L1210 cells = type: cell-based
Protocol: The cells were cultured in an incubator at 37° C., 5% CO2 and saturated humidity. The culture medium was removed, the cells were washed with PBS twice, fixed at −20° C. overnight. Then the cells were centrifuged again, washed with PBS to remove ethanol, cultured with RNase A (200 μg/mL, Sigma) at 37° C. for 1 h, stained with PI (50 μg/mL, Sigma) in dark for 30 min, and detected by using a flow cytometer.

[1] = test system: Staphylococcus aureus wild type; assay: Inhibition zone test (holing method); type: cell-based; conditions: 37° C., 24 h; compounds 0.05 mg/well, streptomycin 0.15 mg/well
Protocol: (§1) After being cultured at 37° C. for 24 h, the sizes of inhibition zones were measured.

Bacillus subtilis = assay: Inhibition zone test (holing method); type: cell-based; conditions: 37° C., 24 h; compounds 0.05 mg/well, streptomycin 0.15 mg/well
Protocol: as §1

[2] = test system: Staphylococcus aureus MRSA 5676; assay: Inhibition zone test (holing method); type: cell-based; conditions: 37° C., 24 h; compounds 0.05 mg/well, vancomycin 0.15 mg/well
Protocol: as §1

[3] = test system: Staphylococcus aureus MRSA 5677; assay: Inhibition zone test (holing method); type: cell-based; conditions: 37° C., 24 h; compounds 0.05 mg/well, vancomycin 0.15 mg/well
Protocol: as §1

[4] = test system: Staphylococcus aureus wild type; assay: Test of minimal inhibitory concentration (MIC); type: cell-based; conditions: two-fold dilution, 37° C., 24 h, absorbance 595 nm
MRSA5676 = assay: Test of minimal inhibitory concentration (MIC); type: cell-based, Staphylococcus aureus; conditions: two-fold dilution, 37° C., 24 h, absorbance 595 nm
MRSA5677 = assay: Test of minimal inhibitory concentration (MIC); type: cell-based, Staphylococcus aureus; conditions: two-fold dilution, 37° C., 24 h, absorbance 595 nm
Pseudomonas aeruginosa [5] = assay: Measurement of growth curve of Pseudomonas aeruginosa; type: cell-based; conditions: 10 mM according to FIG. 2 legend
Protocol: Pseudomonas aeruginosa was inoculated in LB medium, and cultured at a constant temperature of 37° C. in a shaker overnight.

L1210 leukemia cells = assay: In vitro antitumor activity to L1210 leukemia cells (MTT); type: cell-based
Protocol: The cells were cultured in an incubator at 37° C., 5% CO2 and saturated humidity for 48 h. Then 5 mg/mL MTT (20 μL/well) was added and cultured at the same conditions for 4 h, DMSO (150 μL/well) was added, and the (570/630 nm) absorbance (A values) was measured by using micro-plate reader.

Pseudomonas aeruginosa [6] = assay: Inhibition zone test (holing method); type: cell-based; conditions: 37° C., 24 h; compounds 0.05 mg/well, gentamicin 0.10 mg/well
Protocol: as §1

Candida albicans = assay: Inhibition zone test (holing method); type: cell-based; conditions: 37° C., 24 h; compounds 0.05 mg/well, nysfungin 0.10 mg/well
Protocol: as §1

E. coli = assay: Inhibition zone test (holing method); type: cell-based; conditions: 37° C., 24 h; compounds 0.05 mg/well, gentamicin 0.10 mg/well
Protocol: as §1

NF-kappaB = conditions: 0.5 mmol/L, HAEC pretreated 48 h, TNF-α 10 U/ml; cited from earlier work
glutathione = conditions: after injection to animals; especially lung, liver and kidney cells; cited from earlier work
[7] = test system: secretion of pyocyanin by Pseudomonas aeruginosa; assay: Measurement of pyocyanin; type: cell-based; conditions: 18 h culture, A520; Andro, AL-1 1 mM; Chuanhuning, Yanhuning, Lianbizhi 10 mM (FIG. 3)
Protocol: Pseudomonas aeruginosa was inoculated in LB medium, then cultured at a constant temperature of 37° C. in a shaker overnight. […] The supernatant was taken and extracted in turn with chloroform and 0.2 N HCl, and A520 values were measured (Zielinshi et al., Biol. Chem. 1991, 266, 9754-9763; May et al., Clin. Microbiology Rev. 1991, 4, 191-206).

[8] = test system: extracellular protease of Pseudomonas aeruginosa; assay: Measurement of extracellular protease; type: cell-based; conditions: azo-casein, A440; Andro, AL-1 1 mM; Chuanhuning, Yanhuning, Lianbizhi 10 mM (FIG. 4)
Protocol: Pseudomonas aeruginosa was inoculated in LB liquid, and cultured at a constant temperature of 37° C. in a shaker overnight. […] After the bacterial liquids were cultured simultaneously at 37° C. for 6 h and centrifuged, supernatant 100 μL was taken, azo-casein 5 mg was added, […] and CaCl2 10 mM were added, and then they were shaken for reaction at 37° C. for 6 h, and the reaction was terminated by adding EDTA-Na. The A440 values of the supernatants were measured (Zielinshi et al., Biol. Chem. 1991, 266, 9754-9763; May et al., Clin. Microbiology Rev. 1991, 4, 191-206).

[9] = test system: rats with STZ-induced diabetes mellitus; assay: Therapeutical effects on STZ-induced diabetes mellitus in rats; conditions: Day 0, before treatment
Protocol: 30 Female SD rats, 180-220 g, fasted for 16 h, were subjected to intraperitoneal injection of 60 mg/kg of STZ (purchased from Sigma Company). After 72 h, blood samples were collected from the rats by cutting their tails after fasting 16 h, and blood glucose values were measured by using a blood glucose analyzer (Johnson & Johnson Company). […] Animals were weighed, orbital bleeded, and the sera were separated. According to the instructions of kit (Zhejiang Dongou Biotechnology Co., Ltd.), the contents of triglyceride and total cholesterol were measured. […] The rats of vehicle group were treated with an equivalent volume of solvent (20% DMSO in H2O). After being fasted for 16 h, the rats were weighed, and bleeded for the measurement of blood glucose, triglyceride and total cholesterol. The obtained data were processed by using one-factor analysis of variance (One-way ANOVA) followed by Student's t-test.

[10] = test system: suspended Pseudomonas aeruginosa; assay: Experiment of combination with antibiotics; type: cell-based; conditions: Pseudomonas aeruginosa cultured 15 h, OD600; ciprofloxacin 0.017 μg/mL, erythromycin 3.75 μg/mL, Andro 350 μg/mL, AL-1 538 μg/mL (1 μmol/mL)
[11] = L1210 cells, 48 h, MTT, read-out: IC50

Row | Compound | Inhibition zone diameter, Staphylococcus aureus Wild type [1] | Inhibition zone diameter, Bacillus Subtilis (Bacillus subtilis) | Inhibition zone diameter, Staphylococcus aureus MRSA 5676 [2] | Inhibition zone diameter, Staphylococcus aureus MRSA 5677 [3] | Inhibition zone diameter, Pseudomonas aeruginosa (Pseudomonas aeruginosa [6]) | Inhibition zone diameter, Candida albicans (Candida albicans) | Inhibition zone diameter, E. coli (E. coli) | also measured
1 | COc1cccc2c1C(=O)c1c(O)c3c(c(O)c1C2=O)C[C@@](O)(C(=O)CO)C[C@@H]3O[C@H]1C[C@H](N)[C@H](O)[C@H](C)O1 [Dox, doxorubicin hydrochloride] | – | – | – | – | – | – | – | effect on cell cycle of L1210 cells (L1210 cells; concentration not given): arrested L1210 cells at G2 phase
2 | [H]/N=C(/N)N[C@H]1[C@H](O)[C@@H](O)[C@H](O[C@@H]2O[C@@H](C)[C@](O)(C=O)[C@H]2O[C@@H]2O[C@@H](CO)[C@H](O)[C@@H](O)[C@@H]2NC)[C@@H](N/C(N)=N\[H])[C@@H]1O [Streptomycin] | 21.2 ± 1.00 mm | 22.1 ± 1.00 mm | – | – | – | – | – | –
3 | CN[C@H](CC(C)C)C(=O)N[C@H]1C(=O)N[C@@H](CC(N)=O)C(=O)N[C@H]2C(=O)N[C@H]3C(=O)N[C@H](C(=O)N[C@H](C(=O)O)c4cc(O)cc(O)c4-c4cc3ccc4O)[C@H](O)c3ccc(c(Cl)c3)Oc3cc2cc(c3O[C@@H]2O[C@H](CO)[C@@H](O)[C@H](O)[C@H]2O[C@H]2C[C@](C)(N)[C@H](O)[C@H](C)O2)Oc2ccc(cc2Cl)[C@H]1O [Vancomycin] | – | – | 20.0 ± 1.00 mm | 21.0 ± 1.00 mm | – | – | – | MIC, Wild type [4]: 1.56; MIC, MRSA5676 (MRSA5676): 1.56; MIC, MRSA5677 (MRSA5677): 3.13
4 | potassium sodium dehydroandrographolide succinate [Yanhuning] | ^b (incompetence (inhibition zone diameter <4 mm)) | ^b (incompetence (inhibition zone diameter <4 mm)) | ^b (incompetence (inhibition zone diameter <4 mm)) | ^b (incompetence (inhibition zone diameter <4 mm)) | ^b (incompetence (inhibition zone diameter <4 mm)) | ^b (incompetence (inhibition zone diameter <4 mm)) | ^b (incompetence (inhibition zone diameter <4 mm)) | inhibition of the growth of Pseudomonas aeruginosa (growth curve, A600) (Pseudomonas aeruginosa [5]): no direct inhibition effect; IC50 (L1210 leukemia cells; [11]): > 100 µM
5 | Nysfungin | – | – | – | – | – | 10.00 ± 1.00 mm | – | –
6 | O=C(O)CCCCC1CCSS1 (stereo not drawn) [lipoic acid, Alpha-lipoic acid] | – | – | – | – | – | – | – | inhibition of NF-kappaB activity induced by TNF-α (NF-kappaB): 81%; increase of glutathione level (glutathione): 30%-70%
7 | potassium dehydroandrograpolide succinate [Chuanhuning] | ^b (incompetence (inhibition zone diameter <4 mm)) | ^b (incompetence (inhibition zone diameter <4 mm)) | ^b (incompetence (inhibition zone diameter <4 mm)) | ^b (incompetence (inhibition zone diameter <4 mm)) | ^b (incompetence (inhibition zone diameter <4 mm)) | ^b (incompetence (inhibition zone diameter <4 mm)) | ^b (incompetence (inhibition zone diameter <4 mm)) | inhibition of the growth of Pseudomonas aeruginosa (growth curve, A600) (Pseudomonas aeruginosa [5]): no direct inhibition effect; IC50 (L1210 leukemia cells; [11]): > 100 µM
8 | C=C1CCC2[C@](C)(CO)[C@H](O)CC[C@@]2(C)[C@@H]1C/C=C1/C(=O)OCC1OC(=O)/C=C/c1ccc([N+](=O)[O-])cc1 (some centres unmarked) [ANO, 14-[4′-nitrocinnamyl]-3,19-dihydroxy-andrographolide] | 8.3 ± 0.99 mm | ^b (incompetence (inhibition zone diameter <4 mm)) | 8.1 ± 0.64 mm | 6.4 ± 0.42 mm | ^b (incompetence (inhibition zone diameter <4 mm)) | ^b (incompetence (inhibition zone diameter <4 mm)) | ^b (incompetence (inhibition zone diameter <4 mm)) | effect on cell cycle / apoptosis of L1210 cells (L1210 cells; 10 μM, after 12 h): arrest L1210 cells at G1 prophase; IC50 (L1210 leukemia cells; Mus musculus, L1210 cells, 48 h, MTT, read-out: IC50): 9.96 ± 2.25 µM; MIC, Wild type [4]: 62.5; MIC, MRSA5676 (MRSA5676): 62.5; MIC, MRSA5677 (MRSA5677): 25; inhibition of the secretion of pyocyanin [7]: AL-1>Andro>ANO; inhibition of the production/activity of extracellular protease [8]: AL-1>ANO>Andro
9 | C=C1CCC2[C@@](C)(CC[C@@H](O)[C@@]2(C)CO)C1CC(C1=CCOC1=O)S(=O)(=O)[O-].[Na+] (some centres unmarked) [Lianbizhi, andrographolide sodium bisulfite] | ^b (incompetence (inhibition zone diameter <4 mm)) | ^b (incompetence (inhibition zone diameter <4 mm)) | ^b (incompetence (inhibition zone diameter <4 mm)) | ^b (incompetence (inhibition zone diameter <4 mm)) | ^b (incompetence (inhibition zone diameter <4 mm)) | ^b (incompetence (inhibition zone diameter <4 mm)) | ^b (incompetence (inhibition zone diameter <4 mm)) | inhibition of the growth of Pseudomonas aeruginosa (growth curve, A600) (Pseudomonas aeruginosa [5]): no direct inhibition effect; IC50 (L1210 leukemia cells; Mus musculus, L1210, 48 h): > 100 µM
10 | Gentamicin | – | – | – | – | 21.0 ± 1.00 mm | – | 20.1 ± 1.00 mm | –
11 | COc1ccc(Cl)cc1C(=O)NCCc1ccc(S(=O)(=O)NC(=O)NC2CCCCC2)cc1 [Glibenclamide] | – | – | – | – | – | – | – | Blood glucose [9]: 26.9 ± 1.56 mmol/L; Body weight [9]: 201 ± 3.61 g; Total cholesterol [9]: 2.57 ± 1.09 mmol/L; Total triglyceride [9]: 7.84 ± 2.21 mmol/L
12 | CC[C@H]1OC(=O)[C@H](C)[C@@H](O[C@H]2C[C@@](C)(OC)[C@@H](O)[C@H](C)O2)[C@H](C)[C@@H](O[C@@H]2O[C@H](C)C[C@H](N(C)C)[C@H]2O)[C@](C)(O)C[C@@H](C)C(=O)[C@H](C)[C@@H](O)[C@]1(C)O [Erythromycin] | – | – | – | – | – | – | – | Survival Rate [10]: 93.9%
